{"source": "patent US12264185B2", "about": "“Stabilized BCL9 peptides for treatment of aberrant Wnt signaling” (WntRx Pharmaceuticals Inc., priority 2015, dated 2025)", "key": {"[1]": {"test_system": "HCT116 cells", "type": "cell-based", "conditions": "HCT116 cells, CellTiterGlo", "experimental": "The additional polypeptides were tested in a CellTiterGlo luminescent cell viability assay (Promega). ICG001 was used as a positive control in this assay."}, "[2]": {"test_system": "Colo320DM cells", "experiment": "cells", "experimental": "Colo320DM cells were selected for this assay as the proliferation of this particular cell line is dependent on BCL9 and β-catenin. ICG001, a known Wnt/β-catenin small molecule inhibitor, was used as a positive control. The cell viability at each treatment condition was analyzed using CellTiterGlo luminescent cell viability assay (Promega) according to the manufacturer's protocols.\nFollowing the procedure described in Example 2, the ability of WX-035 to inhibit cell growth was tested in a cell viability assay using Colo320DM cells."}, "[3]": {"test_system": "Wnt/β-catenin signaling", "experiment": "GeneBLAzer beta-lactamase Wnt transcription reporter assay, LEF/TCF-bla HCT-116 cells", "type": "cell-based", "conditions": "for IC50: LEF/TCF-bla HCT-116 cells", "source_text": "ICG001 was used as a comparison. The GeneBLAzer uses CellSensor™ LEF/TCF-bla HCT-116 cells that contain a beta-lactamase (BLA) reporter gene under the control of the β-catenin/LEF/TCF response element stably integrated into HCT-116 cells, as shown in FIG. 5A. These cells constitutively express beta-lactamase and can be used to detect agonists and antagonists of the Wnt/β-catenin signaling pathway. The GeneBLAzer assay provides a ratiometric reporter response involving a two-color (blue/green) readout of stimulated and unstimulated cells.\nLEF/TCF-bla HCT-116 cells were plated in assay medium (Invitrogen) on clear-bottom plates and incubated overnight at 37° C. […] Cells were next incubated with the Wnt agonist, mWnt3a (provided in the GeneBLAzer kit) for 5 hours at 37° C. Substrate mixture (containing LiveBLAzer™ B/G substrate that employs CCF4-AM, a FRET substrate for beta-lactamase) was added to the wells, and the plate was incubated for 2.5 hours at room temperature in the dark. Black-walled, clear-bottom, 384-well plates (Corning Costar) were used with scanning done with a Spectramax M2. Plates were scanned first (Scan 1 in the blue channel) with excitation filter 409/20 nm and emission filter 460/40 nm. Plates were then scanned (Scan 2 in the green channel) with excitation filer 409/20 nm and emission filter 530/30 nm."}, "[4]": {"test_system": "CT26 cells", "experiment": "cells", "conditions": "Mus musculus, CT26, read-out: IC50, CT26 cell growth", "experimental": "CT26 cells were grown in F-bottom plates over 5 days. […] CellTiterGlo (Promega) cell viability assay. […] Doxorubicin is a known inhibitor of cell growth and was included as a control."}, "[5]": {"experiment": "FIG. 10B", "conditions": "for MRTINF | hr: in vivo", "experimental": "Each data point represents N=2. Mice were administered 5 mg/kg, 10 mg/kg, or 15 mg/kg intravenously, 5 mg/kg intramuscularly, 10 mg/kg intraperitoneally, or 10 mg/kg subcutaneously."}, "[6]": {"test_system": "CT26.WT cells", "type": "cell-based", "experimental": "One of the stabilized polypeptides generated in Example 10 was tested in a cell viability assay and compared against WX-035. WX-037 was selected for this comparison study. The cell viability assay was performed with CT26.WT cells (ATCC), following the procedures described in Example 2. Briefly, 4000 cells per well of each plate were seeded with 50 μL opti-MEM medium. Each polypeptide, WX-035 or WX-037, was diluted with 2% FBS containing opti-MEM medium using 1 μL of 200× concentrated polypeptide in 99 μL of the medium. Each stock solution was diluted for testing a wide range of concentrations. 50 μL of 2× concentrated polypeptide was added to each well of the plate. Three days after the polypeptide addition, the viability of cells was measured using CellTiterGlo assay, according to the manufacturer's protocol."}, "[7]": {"experiment": "FIG. 9B", "source_text": "Table printed on a drawing sheet, FIG. 9B\nFirst reader's note: Plasma PK parameters derived from the concentration-time curves plotted in FIG. 9A on the same sheet."}, "[8]": {"conditions": "read-out: IC50, Wnt transcription"}}, "note": "Several values for one entry are separate records, joined by “and”; a condition that tells them apart may be missing. Identical values can stand only once. Like-named read-outs stand apart in the source and are kept apart here. Bridge positions count the residues as written; N and C are the ends. Square brackets hold non-standard residues; d marks the D form. Peptide text beside a SMILES is read from it. 2Nal = N[C@@H](Cc1ccc2ccccc2c1)C(=O)O; R5 = C=CCCC[C@@](C)(N)C(=O)O; S5 = C=CCCC[C@](C)(N)C(=O)O; βAla = NCCC(=O)O"}
{"compound": "O=C1[C@H](Cc2ccc(O)cc2)N2C(=O)CCN(C(=O)NCc3ccccc3)[C@H]2CN1Cc1cccc2ccccc12", "note": "[ICG001, reference compound]", "values": [{"measurement": "IC50", "setting": "[1]; read-out: IC50, cell viability", "result": 2.17, "unit": "µM"}, {"measurement": "effect on cell viability / cell growth", "setting": "[2]; Colo320DM cells", "result": "capable of inducing cell death in a dose dependent manner"}, {"measurement": "IC50", "setting": "[3]; [8]", "result": 1.06, "unit": "µM"}]}
{"compound": "stapled, Ac N-terminus, C-terminus 2-Nal-β-Ala-β-Ala-NH2 (Ac-LR[S5]IQR[S5]L[2Nal][βAla][βAla]-NH2; staple 3-7; SMILES CC[C@H](C)[C@@H]1NC(=O)[C@@](C)(NC(=O)[C@H](CCCNC(=N)N)NC(=O)[C@H](CC(C)C)NC(C)=O)CCCC=CCCC[C@@](C)(C(=O)N[C@@H](CC(C)C)C(=O)N[C@@H](Cc2ccc3ccccc3c2)C(=O)NCCC(=O)NCCC(N)=O)NC(=O)[C@H](CCCNC(=N)N)NC(=O)[C@H](CCC(N)=O)NC1=O) [WX-021, LRXaa1IQRXaa2L]", "values": [{"measurement": "inhibition of cell growth", "setting": "[1]", "result": "particularly effective"}, {"measurement": "IC50", "setting": "[3]; [8]", "result": 0.764, "unit": "µM"}]}
{"compound": "C#Cc1cccc(Nc2ncnc3cc(OCCOC)c(OCCOC)cc23)c1", "note": "[erlotinib]", "values": [{"measurement": "IC50", "setting": "[4]", "result": "> 2", "unit": "µM"}]}
{"compound": "Cc1cc(-c2ncc(CC(=O)Nc3ccc(-c4cnccn4)cn3)cc2C)ccn1", "note": "[LGK-974, reference compound]", "values": [{"measurement": "IC50", "setting": "[3]; Homo sapiens, read-out: IC50, Wnt/β-catenin transcription", "result": "> 10", "unit": "µM"}]}
{"compound": "CC[C@H](C)[C@@H]1NC(=O)[C@@](C)(NC(=O)[C@H](CCCNC(=N)N)NC(=O)[C@H](CC(C)C)NC(=O)[C@@H](NC(=O)[C@H](CCC(N)=O)NC(=O)[C@H](CC(C)C)NC(C)=O)[C@@H](C)O)CCCC=CCCC[C@@](C)(C(=O)N[C@@H](CC(C)C)C(=O)N[C@@H](Cc2ccc3ccccc3c2)C(N)=O)NC(=O)[C@H](CCCNC(=N)N)NC(=O)[C@H](CCC(N)=O)NC1=O", "note": "(single isomer, unassigned) [WX-024 15mg/kg, IV]", "values": [{"measurement": "AUCINF |", "setting": "[5]", "result": 260, "unit": "µg·h/mL"}, {"measurement": "AUClast |", "setting": "[5]", "result": 260, "unit": "µg·h/mL"}, {"measurement": "CL | L/hr/kg", "setting": "[5]", "result": 0.0576, "unit": "L/h/kg"}, {"measurement": "CL | mL/min/kg", "setting": "[5]", "result": 0.96, "unit": "mL/min/kg"}, {"measurement": "VSS |", "setting": "[5]", "result": 0.0946, "unit": "L/kg"}, {"measurement": "MRTINF | hr", "setting": "[5]; mouse, iv", "result": 1.64, "unit": "h"}]}
{"compound": "CC[C@H](C)[C@@H]1NC(=O)[C@@](C)(NC(=O)[C@H](CCCNC(=N)N)NC(=O)[C@H](CC(C)C)NC(=O)[C@@H](NC(=O)[C@H](CCC(N)=O)NC(=O)[C@H](CC(C)C)NC(C)=O)[C@@H](C)O)CCCC=CCCC[C@@](C)(C(=O)N[C@@H](CC(C)C)C(=O)N[C@@H](Cc2ccc3ccccc3c2)C(N)=O)NC(=O)[C@H](CCCNC(=N)N)NC(=O)[C@H](CCC(N)=O)NC1=O", "note": "(single isomer, unassigned) [WX-024 5mg/kg, IV]", "values": [{"measurement": "AUCINF |", "setting": "[5]", "result": 136, "unit": "µg·h/mL"}, {"measurement": "AUClast |", "setting": "[5]", "result": 136, "unit": "µg·h/mL"}, {"measurement": "CL | L/hr/kg", "setting": "[5]", "result": 0.0368, "unit": "L/h/kg"}, {"measurement": "CL | mL/min/kg", "setting": "[5]", "result": 0.613, "unit": "mL/min/kg"}, {"measurement": "VSS |", "setting": "[5]", "result": 0.0693, "unit": "L/kg"}, {"measurement": "MRT", "setting": "[5]; female, Balb/c, mouse, blood, iv", "result": 1.88, "unit": "h"}, {"measurement": "half-life", "setting": "[5]; female, Balb/c, mouse, blood, iv, read-out: TERMINAL t1/2 | hr (converted)", "result": 1.99, "unit": "h"}]}
{"compound": "COc1cccc2c1C(=O)c1c(O)c3c(c(O)c1C2=O)C[C@@](O)(C(=O)CO)C[C@@H]3O[C@H]1C[C@H](N)[C@H](O)[C@H](C)O1", "note": "[doxorubicin]", "values": [{"measurement": "IC50", "setting": "[4]", "result": 7.52, "unit": "µM"}]}
{"compound": "CC(=O)N[C@]1(C)CCCC=CCCC[C@@](C)(C(=O)N[C@@H](CC(=O)O)C(=O)N[C@@H](CCCNC(=N)N)C(=O)N[C@@]2(C)CCCC=CCCC[C@@](C)(C(=O)N[C@@H](CC(=O)O)C(=O)N[C@@H](Cc3c[nH]cn3)C(=O)NCCC(=O)NCCC(N)=O)NC(=O)[C@H](CCCNC(=N)N)NC(=O)[C@H](CCC(N)=O)NC(=O)[C@H](CC(=O)O)NC2=O)NC(=O)[C@H](CCC(N)=O)NC(=O)[C@H](CC(=O)O)NC1=O", "note": "[WX-037, Xaa1DQXaa2DRXaa3DQRXaa4DH] (Ac-[R5]DQ[S5]DR[S5]DQR[S5]DH[βAla][βAla]-NH2; staple 1-4, 7-11)", "values": [{"measurement": "IC50", "setting": "[6]", "result": "> 32", "unit": "µM"}]}
{"compound": "CC[C@H](C)[C@@H]1NC(=O)[C@@](C)(NC(=O)[C@H](CCCNC(=N)N)NC(=O)[C@H](CC(C)C)NC(=O)[C@@H](NC(=O)[C@H](CCC(N)=O)NC(=O)[C@H](CC(C)C)NC(C)=O)[C@@H](C)O)CCCC=CCCC[C@@](C)(C(=O)N[C@@H](CC(C)C)C(=O)N[C@@H](Cc2ccc3ccccc3c2)C(N)=O)NC(=O)[C@H](CCCNC(=N)N)NC(=O)[C@H](CCC(N)=O)NC1=O", "note": "(single isomer, unassigned) [WX-024, LQTLRXaa1IQRXaa2L]", "values": [{"measurement": "T1/2 | hr", "setting": "[7]", "result": "2.44 h and 2.59 h and 2.51 h"}]}
{"compound": "CC[C@H](C)[C@@H]1NC(=O)[C@@](C)(NC(=O)[C@H](CCCNC(=N)N)NC(=O)[C@H](CC(C)C)NC(C)=O)CCCC=CCCC[C@@](C)(C(=O)N[C@@H](CC(C)C)C(N)=O)NC(=O)[C@H](CCCNC(=N)N)NC(=O)[C@H](CCC(N)=O)NC1=O", "note": "[WX-020, LRXaa1IQRXaa2L] (Ac-LR[S5]IQR[S5]L-NH2; staple 3-7)", "values": [{"measurement": "IC50", "setting": "[2]", "result": 12.4, "unit": "µM"}, {"measurement": "inhibition of Wnt transcription among domain mapping polypeptides", "setting": "[3]; HCT116 cells", "result": "most effective polypeptide in inhibiting the Wnt transcription"}, {"measurement": "IC50", "setting": "[3]; [8]", "result": 1.58, "unit": "µM"}]}
{"compound": "O=c1[nH]cc(F)c(=O)[nH]1", "note": "[5-FU, 5-fluorouracil, reference compound]", "values": [{"measurement": "IC50", "setting": "[2]; Homo sapiens, COLO 320DM, read-out: IC50, cell viability", "result": 12.1, "unit": "µM"}]}
{"compound": "CC[C@H](C)[C@@H]1NC(=O)[C@@](C)(NC(=O)[C@H](CCCNC(=N)N)NC(=O)[C@H](CC(C)C)NC(=O)[C@@H](NC(=O)[C@H](CCC(N)=O)NC(=O)[C@H](CC(C)C)NC(C)=O)[C@@H](C)O)CCCC=CCCC[C@@](C)(C(=O)N[C@@H](CC(C)C)C(=O)N[C@@H](Cc2ccc3ccccc3c2)C(N)=O)NC(=O)[C@H](CCCNC(=N)N)NC(=O)[C@H](CCC(N)=O)NC1=O", "note": "(single isomer, unassigned) [WX-024 10mg/kg, IV]", "values": [{"measurement": "AUCINF |", "setting": "[5]", "result": 233, "unit": "µg·h/mL"}, {"measurement": "AUClast |", "setting": "[5]", "result": 233, "unit": "µg·h/mL"}, {"measurement": "CL | L/hr/kg", "setting": "[5]", "result": 0.0428, "unit": "L/h/kg"}, {"measurement": "CL | mL/min/kg", "setting": "[5]", "result": 0.713, "unit": "mL/min/kg"}, {"measurement": "VSS |", "setting": "[5]", "result": 0.0788, "unit": "L/kg"}, {"measurement": "MRTINF | hr", "setting": "[5]; mouse, iv", "result": 1.84, "unit": "h"}]}
